In patent US8815210B2, “Diagnostic composition comprising plasma cations having superior safety profile” (GE Healthcare AS, priority 2009, dated 2014):
“Also recorded” adds a separate entry of the source.

Columns and labels:
[1] = test system: CD25^+-depleted peripheral blood mononuclear cells; experiment: In vitro T cell proliferation model; assay type: cell-based; conditions: 2 and 5 mg I/mL, 100 donors, positive response stimulation index ≧1.9
Description: Generally, iodinated contrast media may cause late hypersensitivity reactions in susceptible patients from 1 hour to several days after exposure. These reactions are mainly non-serious skin eruptions such as macular, maculopapular and urticaria-like eruptions. Contrast media-induced delayed adverse reactions (DARs) such as skin eruptions appear to be caused by contrast media-reactive T cells that, upon recognizing the contrast media, proliferate and subsequently orchestrate an inflammatory reaction in the skin. The applicant has evaluated an in vitro T cell proliferation model designed to predict the relative frequency with which contrast media, such as Compound I, will cause late skin reactions in patients post-intravascular administration. Two contrast media, iodixanol and iohexol, with known rates of delayed skin reactions, and the new contrast medium, Compound I, was screened (2 and 5 mg I/mL) for in vitro T cell proliferation in CD25^+-depleted peripheral blood mononuclear cells from 100 donors representing world population HLA-DR frequencies. Positive T cell responses were evaluated according to published protocols and stimulation index values (positive response≧1.9). In vitro toxicity was tested by measuring cell viability of the first 10 donor samples incubated with test contrast media (5 mg I/mL). The results were that all major HLA-DR allotypes were represented with a frequency equivalent to the world population. No contrast media tested appeared to have a meaningful effect on cell viability. […] For iodixanol and iohexol, T cell proliferation responses for most donors occurred on days 7 and 8; statistical significance favored a reduced proliferation response to Compound I on day 8. In conclusions the model successfully established the relative frequency with which contrast media caused in vitro T cell activation. The results correlated with reported frequency of late skin reactions with two marketed contrast media and identified a lower frequency for Compound I.

[2] = test system: normal pigs; experiment: Haemodynamic effects after fast LAD injection in normal pigs (Example 2c); assay type: in vivo, pig; conditions: 40 ml at 5 ml/sec into LAD; Compound I in composition with 45 mM NaCl and 0.5 mM CaCl2
Description: FIG. 6 a) and b) depicts the effect on cardiovascular parameters following injection of 40 ml (5 ml/sec) of Ringer Lactate, Compound I, Visipaque or Iopamidol to the LAD of normal pigs.
In a further study the haemodynamic effects of Compound I in a composition with 45 mM NaCl and 0.5 mM CaCl2 was compared to Visipaque and Iopamidol following selective administration to the LAD of normal pigs with a fast injection rate (5 ml/sec). Ringer Lactate was also studied as a volume and electrolyte “ratio” control. In total 3 pigs were studied, and each CM was administered twice to each pig in random order. The injection rate used was 5 ml/sec with a total injection volume of 40 ml.

[3] = Partition coefficient between octanol and water; assay type: physicochemical; conditions: n-octanol/water
Description: As a measure of the hydrophilicity of Compound I, the partition coefficient between octanol and water was determined. Water (5 ml) containing the test substance (0.3 mg/ml) was shaken with 15 ml n-octanol until equilibrium had been obtained. The aqueous phase was separated by centrifugation and analyzed by HPLC (HP1100 equipped with a Discovery C18 column, 100×2.1 mm) using UV detection at 244 nm and a flow of 0.3 ml/min. Isocratic HPLC conditions were used, 8% acetonitrile in water (v/v). The octanol phase (12.5 ml) was extracted with water (0.75 ml) until equilibrium had been obtained and the phases were separated by centrifugation. The aqueous phase was analyzed by HPLC using the conditions detailed above. Both octanol and water were pre-saturated with water and octanol, respectively, before the partition coefficient experiments. […] As a comparison, the corresponding logP of iodixanol was determined to −4.02. The reported literature value is −4.05. The increased hydrophilicity of Compound I compared to iodixanol is confirmed by its HPLC behavior.

[4] = Viscosity, calibrated U-tube technique; assay type: physicochemical; conditions: 320 mgI/ml, 20° C.
Description: The viscosity of compound I was determined at 20° C. and 37° C. at three different concentrations. The viscosity at 320 mgI/ml and 20° C. is around 24 mPas.
The viscosity of Compound I was determined at two different temperatures, 20° C. and 37° C. and three different concentrations, 246, 295 and 313 mgI/ml. The test solutions were isotonic through adjustment of the osmolality with NaCl and had been sterilized by autoclavation. The density of the solutions was determined using a Density meter, DMA58 (Anton Paar). A calibrated U-tube technique was used, where the time of fall was used as a measure of dynamic viscosity. The viscosity of compound I was determined at 20° C. and 37° C. at three different concentrations. In comparison with Visipaque, the viscosity at 320 mgI/ml and 20° C. is similar, around 24 mPas.

[5] = test system: human serum albumin (HSA); experiment: Binding to human serum albumin, equilibrium dialysis; assay type: in vitro ADME; conditions: 25 hours, citrated human plasma
Description: The binding of Compound I to human serum albumin (HSA) was determined using an equilibrium dialysis method. The binding of Compound I to human serum albumin was determined to be very low, 3.1±1.3%, confirming the negligible interaction of the substance with endogenous proteins.
The binding of Compound I to human serum albumin (HSA) was determined using an equilibrium dialysis method. A stock solution of Compound I (5.0 mg/ml in phosphate buffered saline (PBS)) was mixed with citrate:human plasma in a ratio of 1:9. Equilibration was carried out in a Diachem Dianorm Dialyser against an aqueous phosphate buffered saline using a Diachem 10.17 MW cutoff 10000 membrane and was carried out for 25 hours. Analysis of the solutions was performed using an ICP-AES instrument. In addition, spiked PBS solutions were also equilibrated against citrated human plasma solutions to ensure that the equilibrium had been obtained. The binding of Compound I to human serum albumin was determined to be very low, 3.1±1.3%, confirming the negligible interaction of the substance with endogenous proteins. As a reference, the binding of iodixanol to HSA was determined to 0.4±0.9%.

[6] = test system: porcine heart; experiment: Intravenous and intra-arterial cardiovascular safety, acute porcine model (Example 3); assay type: in vivo, pig
Description: The intravenous (i.v) and intra-arterial (i.a.) safety of a composition of Compound I was shown in a separate study (ref. B145095). In this study the cardiovascular effects of Compound I in a composition with 45 mM NaCl and 0.5 mM CaCl2 was assessed at three dose levels in vivo in an acute porcine model.
The composition was administered either intra-arterially or intravenously into groups of three animals at one of three dose levels (1-fold, 2-fold or 3-fold the standard volume of 2 ml/kg). Each animal also received an equivalent volume of Ringer-Lactate solution as a volume control. CV effects: heart rate (HR), pulse oximetry, electrocardiogram (ECG), aortic pressure (systolic, diastolic and mean), left ventricular end diastolic pressure (LVEDP) were assessed. Ultrasound/echocardiography to assess stroke volume, ejection fraction and cardiac contractility were also evaluated.

## O=CN(CC(O)CN(C=O)c1c(I)c(C(=O)NCC(O)CO)c(I)c(C(=O)NCC(O)CO)c1I)c1c(I)c(C(=O)NCC(O)CO)c(I)c(C(=O)NCC(O)CO)c1I (stereo not shown) [Compound I, 5-[formyl-[3-[formyl-[3,5-bis(2,3-dihydroxypropylcarbamoyl)-2,4,6-triiodophenyl]amino]-2-hydroxypropyl]amino]-N,N′-bis(2,3-dihydroxypropyl)-2,4,6-triiodobenzene-1,3-dicarboxamide]
[1]
  positive T cell proliferation donor samples: fewer positive T cell proliferation donor samples compared with iodixanol and iohexol; also recorded: lowest capacity for stimulating in vitro T cell proliferation
[2]
  increase in LVSP from baseline: ~5%
[3]
  logP: -4.28
[4]
  viscosity: around 24 mPas
[5]
  binding to human serum albumin (HSA): 3.1±1.3%
[6]; entire dose range, i.v. or i.a.
  effect on aortic pressure (systolic, diastolic and mean): little or no effect
[6]; i.a. or i.v. dosing
  QT interval: within the normal range
[6]; i.a. or i.v. route, up to 3-fold of 2 ml/kg
  myocardial performance, overall: no overall changes to myocardial performance
[6]; i.v. or i.a., 1- to 3-fold of 2 ml/kg
  heart rate (HR): remained within normal ranges
[6]; increasing doses, i.v. or i.a.
  LVEDP: slight increases
[6]; pig, in vivo
  end diastolic volume (EDV), echocardiography: only a slight change
  rhythm disturbances (ECG): no Compound I-related rhythm disturbances
[6]; throughout dosing, i.v. or i.a., 1- to 3-fold of 2 ml/kg, composition with 45 mM NaCl and 0.5 mM CaCl2
  oxygen saturation (pulse oximetry): approximately 98%
